Paper PMC5877965 (Proceedings of the National Academy of Sciences of the …, 2018)

Assays:
human M2 mAChR = human M2 mAChR (Homo sapiens, UniProt P08172); type: binding
[1] = target: all five receptor subtypes; details: cited from earlier work

human M2 mAChR, sequence (P08172 whole entry): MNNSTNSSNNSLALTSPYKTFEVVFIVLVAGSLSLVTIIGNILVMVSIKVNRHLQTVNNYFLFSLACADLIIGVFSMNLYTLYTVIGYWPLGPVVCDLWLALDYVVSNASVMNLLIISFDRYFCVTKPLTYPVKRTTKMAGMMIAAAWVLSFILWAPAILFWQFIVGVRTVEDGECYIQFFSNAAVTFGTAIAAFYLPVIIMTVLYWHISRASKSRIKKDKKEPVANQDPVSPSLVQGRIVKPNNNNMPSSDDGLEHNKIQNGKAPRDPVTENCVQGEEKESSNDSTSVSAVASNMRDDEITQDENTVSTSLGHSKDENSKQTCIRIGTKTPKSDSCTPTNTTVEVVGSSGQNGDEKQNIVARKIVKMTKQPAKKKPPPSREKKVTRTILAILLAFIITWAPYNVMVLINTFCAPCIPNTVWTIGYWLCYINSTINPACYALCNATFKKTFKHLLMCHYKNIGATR

Structure (SMILES) | allosteric effect on [3H]NMS binding (in words) (human M2 mAChR) | Kd [1]
CC[N+](CC)(CC)CCOc1cccc(OCC[N+](CC)(CC)CC)c1OCC[N+](CC)(CC)CC [Gallamine, gallamine] | substantially reduced the specific binding | –
COc1nc2sc(C(=O)NC3CC3)c(N)c2c(C)c1Cl [LY2033298] | small NAM effect | –
CN1[C@@H]2C[C@@H](OC(=O)[C@H](CO)c3ccccc3)C[C@H]1[C@@H]1O[C@@H]12 [scopolamine] | – | 0.4 to 2.1 nM
